Test results as given in ChEMBL document CHEMBL1137802, “Specific antioxidant activity of caffeoyl derivatives and other natural phenolic compounds: LDL protection against oxidation and decrease in the proinflammatory lysophosphatidylcholine production” (J Nat Prod, 2001).

What was measured:
Assay type in all cases: functional, cell-free
[1] = Antioxidant activity against Cu2+-induced lipid peroxidation in human plasma LDL assessed as maximal compound concentration at 20 umol/L preincubated for 1 hr before Cu2+ challenge measured after 120 mins relative to compound present at 0 min
[2] = Antioxidant activity against Cu2+-induced lipid peroxidation in human plasma LDL assessed as vitamin E consumption at 5 umol/L preincubated for 1 hr before Cu2+ challenge measured after 120 mins
[3] = Antioxidant activity against Cu2+-induced lipid peroxidation in human plasma LDL assessed as maximal compound concentration at 5 umol/L preincubated for 1 hr before Cu2+ challenge measured after 180 mins relative to compound present at 0 min
[4] = Antioxidant activity against Cu2+-induced lipid peroxidation in human plasma LDL assessed as lysophosphatidylcholine formation at 20 umol/L preincubated for 1 hr before Cu2+ challenge measured after 210 mins
[5] = Antioxidant activity against Cu2+-induced lipid peroxidation in human plasma LDL assessed as vitamin E consumption at 10 umol/L preincubated for 1 hr before Cu2+ challenge measured after 120 mins
[6] = Antioxidant activity against Cu2+-induced lipid peroxidation in human plasma LDL assessed as conjugated diene formation at 5 umol/L preincubated for 1 hr before Cu2+ challenge measured after 210 mins
[7] = Antioxidant activity against Cu2+-induced lipid peroxidation in human plasma LDL assessed as conjugated diene formation at 20 umol/L preincubated for 1 hr before Cu2+ challenge measured after 180 mins
[8] = Antioxidant activity against Cu2+-induced lipid peroxidation in human plasma LDL assessed as lysophosphatidylcholine formation at 5 umol/L preincubated for 1 hr before Cu2+ challenge measured after 90 mins
[9] = Antioxidant activity against Cu2+-induced lipid peroxidation in human plasma LDL assessed as maximal compound concentration at 5 umol/L preincubated for 1 hr before Cu2+ challenge measured after 15 mins relative to compound present at 0 min
[10] = Antioxidant activity against Cu2+-induced lipid peroxidation in human plasma LDL assessed as lysophosphatidylcholine formation preincubated for 1 hr before Cu2+ challenge
[11] = Antioxidant activity against Cu2+-induced lipid peroxidation in human plasma LDL assessed as lysophosphatidylcholine formation at 5 umol/L preincubated for 1 hr before Cu2+ challenge measured after 270 mins
[12] = Antioxidant activity against Cu2+-induced lipid peroxidation in human plasma LDL assessed as lysophosphatidylcholine formation at 10 umol/L preincubated for 1 hr before Cu2+ challenge measured after 60 mins
[13] = Antioxidant activity against Cu2+-induced lipid peroxidation in human plasma LDL assessed as maximal compound concentration at 10 umol/L preincubated for 1 hr before Cu2+ challenge measured after 270 mins relative to compound present at 0 min
[14] = Antioxidant activity against Cu2+-induced lipid peroxidation in human plasma LDL assessed as maximal compound concentration at 10 umol/L preincubated for 1 hr before Cu2+ challenge measured after 30 mins relative to compound present at 0 min
[15] = Antioxidant activity against Cu2+-induced lipid peroxidation in human plasma LDL assessed as vitamin E consumption at 20 umol/L preincubated for 1 hr before Cu2+ challenge measured after 120 mins
[16] = Antioxidant activity against Cu2+-induced lipid peroxidation in human plasma LDL assessed as maximal compound concentration at 20 umol/L preincubated for 1 hr before Cu2+ challenge measured after 15 mins relative to compound present at 0 min
[17] = Antioxidant activity against Cu2+-induced lipid peroxidation in human plasma LDL assessed as lysophosphatidylcholine formation at 10 umol/L preincubated for 1 hr before Cu2+ challenge measured after 180 mins
[18] = Antioxidant activity against Cu2+-induced lipid peroxidation in human plasma LDL assessed as conjugated diene formation at 5 umol/L preincubated for 1 hr before Cu2+ challenge measured after 180 mins
[19] = Antioxidant activity against Cu2+-induced lipid peroxidation in human plasma LDL assessed as lysophosphatidylcholine formation at 10 umol/L preincubated for 1 hr before Cu2+ challenge measured after 120 mins
[20] = Antioxidant activity against Cu2+-induced lipid peroxidation in human plasma LDL assessed as vitamin E consumption at 20 umol/L preincubated for 1 hr before Cu2+ challenge measured after 150 mins
[21] = Antioxidant activity against Cu2+-induced lipid peroxidation in human plasma LDL assessed as lysophosphatidylcholine formation at 5 umol/L preincubated for 1 hr before Cu2+ challenge measured after 180 mins
[22] = Antioxidant activity against Cu2+-induced lipid peroxidation in human plasma LDL assessed as vitamin E consumption at 10 umol/L preincubated for 1 hr before Cu2+ challenge measured after 270 mins
[23] = Antioxidant activity against Cu2+-induced lipid peroxidation in human plasma LDL assessed as maximal compound concentration at 20 umol/L preincubated for 1 hr before Cu2+ challenge measured after 60 mins relative to compound present at 0 min
[24] = Antioxidant activity against Cu2+-induced lipid peroxidation in human plasma LDL assessed as maximal compound concentration at 10 umol/L preincubated for 1 hr before Cu2+ challenge measured after 45 mins relative to compound present at 0 min
[25] = Antioxidant activity against Cu2+-induced lipid peroxidation in human plasma LDL assessed as maximal compound concentration at 20 umol/L preincubated for 1 hr before Cu2+ challenge measured after 270 mins relative to compound present at 0 min
[26] = Antioxidant activity against Cu2+-induced lipid peroxidation in human plasma LDL assessed as vitamin E consumption at 10 umol/L preincubated for 1 hr before Cu2+ challenge measured after 15 mins
[27] = Antioxidant activity against Cu2+-induced lipid peroxidation in human plasma LDL assessed as vitamin E consumption at 10 umol/L preincubated for 1 hr before Cu2+ challenge measured after 90 mins
[28] = Antioxidant activity against Cu2+-induced lipid peroxidation in human plasma LDL assessed as vitamin E consumption at 5 umol/L preincubated for 1 hr before Cu2+ challenge measured after 210 mins
[29] = Antioxidant activity against Cu2+-induced lipid peroxidation in human plasma LDL assessed as conjugated diene formation at 10 umol/L preincubated for 1 hr before Cu2+ challenge measured after 90 mins
[30] = Antioxidant activity against Cu2+-induced lipid peroxidation in human plasma LDL assessed as vitamin E consumption at 10 umol/L preincubated for 1 hr before Cu2+ challenge measured after 60 mins
[31] = Antioxidant activity against Cu2+-induced lipid peroxidation in human plasma LDL assessed as vitamin E consumption at 5 umol/L preincubated for 1 hr before Cu2+ challenge measured after 15 mins
[32] = Antioxidant activity against Cu2+-induced lipid peroxidation in human plasma LDL assessed as maximal compound concentration at 20 umol/L preincubated for 1 hr before Cu2+ challenge measured after 90 mins relative to compound present at 0 min
[33] = Antioxidant activity against Cu2+-induced lipid peroxidation in human plasma LDL assessed as lysophosphatidylcholine formation at 20 umol/L preincubated for 1 hr before Cu2+ challenge measured after 150 mins
[34] = Antioxidant activity against Cu2+-induced lipid peroxidation in human plasma LDL assessed as lysophosphatidylcholine formation at 20 umol/L preincubated for 1 hr before Cu2+ challenge measured after 90 mins

Compound: CC(C)(Sc1cc(C(C)(C)C)c(O)c(C(C)(C)C)c1)Sc1cc(C(C)(C)C)c(O)c(C(C)(C)C)c1
- Activity [1]: 43.2%
- Activity [2]: 0%
- Activity [3]: 45.3%
- Activity [4]: 1.4%
- Activity [5]: 0%
- Activity [6]: 80.8%
- Activity [7]: 2.6%
- Activity [8]: 4.1%
- Activity [9]: 96%
- Activity [10]: Dose-dependent effect
- Activity [11]: 26.1%
- Activity [12]: 0.7%
- Activity [13]: 15.8%
- Activity [14]: 82%
- Activity [15]: 0%
- Activity [16]: 97%
- Activity [17]: 6.2%
- Activity [18]: 79.5%
- Activity [19]: 1.3%
- Activity [20]: 0%
- Activity [21]: 19.4%
- Activity [22]: 0%
- Activity [23]: 51.7%
- Activity [24]: 73%
- Activity [25]: 34.6%
- Activity [26]: 51.8%
- Activity [27]: 0%
- Activity [28]: 0%
- Activity [29]: 4%
- Activity [30]: 0%
- Activity [31]: 45%
- Activity [32]: 44.1%
- Activity [33]: 1.3%
- Activity [34]: 1.1%
